The source of these data is ChEMBL document CHEMBL1151877, “Examination of halogen substituent effects on HIV-1 integrase inhibitors derived from 2,3-dihydro-6,7-dihydroxy-1H-isoindol-1-ones and 4,5-dihydroxy-1H-isoindole-1,3(2H)-diones” (Bioorg Med Chem Lett, 2009).

The target in assay [1] is T1, Human immunodeficiency virus type 1 integrase (Human immunodeficiency virus 1, UniProt Q7ZJM1). The assay can be described thus: Inhibition of HIV1 integrase 3'-processing activity in presence of magnesium.
The target of assay [2] is T1, Human immunodeficiency virus type 1 integrase. As to the kind of experiment: Inhibition of HIV1 integrase strand transfer activity in presence of magnesium.
The subject of the next assay is HOS. The assay can be described thus: Cytotoxicity against human HOS cells. The class given is cell-based.
Assay [3] has as its system Human immunodeficiency virus 1. As to the kind of experiment: Antiviral activity against VSV-g-pseudotyped HIV1 assessed as inhibition of viral infection in human HOS cells pretreated for 3 hrs before viral infection by luciferase reporter gene assay. The class given is functional, organism-based. The conditions noted are these: Human immunodeficiency virus 1, HOS. (In a reporter assay the amount or activity of a reporter protein is the signal.)

The target in assay [4] is Human immunodeficiency virus type 1 integrase (Human immunodeficiency virus 1) (UniProt Q7ZJM1). The assay can be described thus: Selectivity ratio of IC50 for HIV1 integrase strand transfer activity to IC50 for HIV1 integrase 3'-processing activity.
Sequence of Human immunodeficiency virus type 1 integrase (Human immunodeficiency virus 1) (Q7ZJM1 as listed by the source): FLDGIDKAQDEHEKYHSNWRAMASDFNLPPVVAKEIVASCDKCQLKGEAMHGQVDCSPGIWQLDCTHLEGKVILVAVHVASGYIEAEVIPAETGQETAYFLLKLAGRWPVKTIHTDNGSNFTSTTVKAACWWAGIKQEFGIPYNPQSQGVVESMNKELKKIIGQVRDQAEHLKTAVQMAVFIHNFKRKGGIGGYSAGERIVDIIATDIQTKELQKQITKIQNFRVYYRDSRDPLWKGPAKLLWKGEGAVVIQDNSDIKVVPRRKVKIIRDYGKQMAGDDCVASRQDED

T1 sequence (Q7ZJM1 whole entry): as the sequence (Q7ZJM1 as listed by the source) above

Turning to `O=C1c2ccc(O)c(O)c2C(=O)N1Cc1cc(F)c(F)cc1F`, the IC50 (commonly the concentration that gives 50% inhibition) in assay [1] was 54 µM; in assay [2], 0.5 µM.

Take `O=C1c2c(ccc(O)c2O)CN1Cc1cc(F)ccc1F`: the IC50 in assay [1] was over 333 µM; in assay [2], 27 µM; with HOS, 13.4 µM. In assay [3], the concentration giving a half-maximal response (EC50) (as a rule, the concentration needed to bring the measured effect to its halfway point) came to 1.24 µM.

As for `O=C1c2ccc(O)c(O)c2C(=O)N1Cc1cc(F)c(F)c(F)c1`, the IC50 in assay [1] turned out to be 10 µM; in assay [2], 0.6 µM.

Turning to `O=C1c2ccc(O)c(O)c2C(=O)N1Cc1ccc(F)cc1`, the concentration for half-maximal inhibition (IC50) in assay [1] came out at 8 µM; in assay [2] it was 5 µM. Moreover, the concentration for a half-maximal effect (EC50) in assay [3] was found to be 0.86 µM.

On to `O=C1c2c(ccc(O)c2O)CN1Cc1cccc(Cl)c1F`, for which the values for the half-maximal inhibitory concentration (IC50) (in assay [1]; in assay [2]; with HOS) were 36 µM, 2 µM and 9.43 µM, respectively. Moreover, in assay [3], the EC50 was 0.62 µM.

On to `O=C1c2ccc(O)c(O)c2C(=O)N1Cc1cc(Cl)c(F)cc1F`, for which the IC50 in assay [1] amounted to 79 µM; in assay [2], 0.4 µM; in the assay with HOS, 13.7 µM. Besides, the EC50 in assay [3] stood at 4.43 µM.

Consider `O=C1c2c(ccc(O)c2O)CN1Cc1ccccc1F`, for which the half-maximal inhibitory concentration (IC50) in assay [1] is over 333 µM; in assay [2] it was 25 µM.

Consider `O=C1c2ccc(O)c(O)c2C(=O)N1Cc1cc(F)ccc1F`, for which the IC50 turned out to be 60 µM in assay [1] and 0.23 µM in assay [2].

Take `O=C1c2c(ccc(O)c2O)CN1Cc1cccc(F)c1`: the IC50 stood at 238 µM in assay [1], 21 µM in assay [2] and 8.6 µM in the assay with HOS. In addition, the half-maximal effective concentration (EC50) in assay [3] amounted to 1.06 µM.

Consider `O=C1c2c(ccc(O)c2O)CN1Cc1ccc(Cl)c(F)c1`, for which the half-maximal inhibitory concentration (IC50) came to 97 µM in assay [1] and 6 µM in assay [2].

Turning to `O=C1c2c(ccc(O)c2O)CN1Cc1cc(F)cc(F)c1`, the half-maximal inhibitory concentration (IC50) in assay [1] was 233 µM; in assay [2], 0.3 µM; with HOS it was 17.2 µM. Moreover, the half-maximal effective concentration (EC50) in assay [3] worked out at 2.42 µM.

For `O=C1c2c(ccc(O)c2O)CN1Cc1cc(Cl)c(F)cc1F`, the half-inhibitory concentration (IC50) was over 333 µM in assay [1], 4.4 µM in assay [2] and 8.38 µM in the assay on HOS. In assay [3], the EC50 worked out at 0.65 µM.

Regarding `Cc1cc(CN2C(=O)c3ccc(O)c(O)c3C2=O)ccc1F`, the 50% inhibitory concentration (IC50) came out at 11 µM in assay [1] and 0.8 µM in assay [2].

As for `O=C1c2c(ccc(O)c2O)CN1Cc1c(F)cccc1F`, the results for the IC50 in assay [1] and in assay [2] were 71 µM and 20 µM, respectively.

Take `O=C1c2c(ccc(O)c2O)CN1Cc1ccc(F)c(Br)c1`: the IC50 is 34 µM in assay [1] and 1 µM in assay [2].

`O=C1c2ccc(O)c(O)c2C(=O)N1Cc1ccc(F)cc1F`: the concentration for half-maximal inhibition (IC50) worked out at 16 µM in assay [1] and 0.3 µM in assay [2].

Regarding `O=C1c2c(ccc(O)c2O)CN1Cc1cccc(Cl)c1`, the concentration for half-maximal inhibition (IC50) was 72 µM in assay [1], 4 µM in assay [2] and 9.02 µM in the assay with HOS. In addition, the EC50 in assay [3] came to 0.54 µM.

As for `O=C1c2ccc(O)c(O)c2C(=O)N1Cc1c(F)ccc(F)c1F`, the IC50 is 158 µM in assay [1] and 1.8 µM in assay [2].

Turning to `Cc1cc(CN2Cc3ccc(O)c(O)c3C2=O)ccc1F`, the half-inhibitory concentration (IC50) was found to be 17 µM in assay [1] and 0.9 µM in assay [2].

Regarding `O=C1c2c(ccc(O)c2O)CN1Cc1cccc(I)c1`, the half-inhibitory concentration (IC50) in assay [1] is 169 µM; in assay [2], 4 µM; in the assay with HOS, 6.92 µM. Further, the 50% effective concentration (EC50) in assay [3] worked out at 1.07 µM.

With `O=C1c2ccc(O)c(O)c2C(=O)N1Cc1ccc(Cl)c(Cl)c1`, the IC50 in assay [1] stood at 18 µM; in assay [2], 0.12 µM; in the assay with HOS, 4.43 µM. Moreover, the concentration for a half-maximal effect (EC50) in assay [3] was 2.33 µM.

Consider `O=C1c2ccc(O)c(O)c2C(=O)N1Cc1c(F)cccc1F`, for which the results for the half-maximal inhibitory concentration (IC50) in assay [1] and in assay [2] were 103 µM and 2 µM, respectively.

On to `O=C1c2c(ccc(O)c2O)CN1Cc1ccc(F)cc1F`, for which the IC50 in assay [1] was found to be 37 µM; in assay [2], 0.5 µM.

Consider `O=C1c2ccc(O)c(O)c2C(=O)N1Cc1ccc(F)c(F)c1F`, for which the results for the IC50 in assay [1] and in assay [2] were 18 µM and 0.8 µM, respectively.

Regarding `O=C1c2ccc(O)c(O)c2C(=O)N1Cc1ccc(F)c(F)c1`, the IC50 amounted to 27 µM in assay [1], 0.1 µM in assay [2] and 7.94 µM with HOS. Besides, the EC50 in assay [3] was determined as 5.88 µM.

In the case of `O=C1c2c(ccc(O)c2O)CN1Cc1cccc(Br)c1`, the results for the concentration for half-maximal inhibition (IC50) (in assay [1]; in assay [2]; in the assay on HOS) were 264 µM, 3 µM and 7.24 µM, respectively. For the same compound, the EC50 in assay [3] stood at 0.59 µM.

`O=C1c2ccc(O)c(O)c2C(=O)N1Cc1ccc(F)c(Cl)c1`: the IC50 in assay [1] came out at 14 µM; in assay [2] it was 0.17 µM; with HOS, 9.54 µM. For the same compound, in assay [3], the EC50 stood at 2.83 µM.

Take `O=C1c2ccc(O)c(O)c2C(=O)N1Cc1cccc(Br)c1`: the results for the IC50 (in assay [1]; in assay [2]; with HOS) were 16 µM, 0.4 µM and 11.4 µM, respectively. Further, in assay [3], the EC50 came out at 3.78 µM.

For the compound `O=C1c2ccc(O)c(O)c2C(=O)N1Cc1c(F)ccc(F)c1Cl`, the IC50 in assay [1] was 34 µM; in assay [2] it was 4 µM.

As for `O=C1c2ccc(O)c(O)c2C(=O)N1Cc1cccc(F)c1`, the IC50 was 11 µM in assay [1] and 0.3 µM in assay [2].

In the case of `O=C1c2c(ccc(O)c2O)CN1Cc1ccc(F)cc1Cl`, the IC50 is over 333 µM in assay [1] and 2.5 µM in assay [2]. For the same compound, in assay [4], the Ratio IC50 was determined as 700.

Regarding `O=C1c2c(ccc(O)c2O)CN1Cc1c(F)ccc(F)c1Cl`, the IC50 is over 333 µM in assay [1] and 8.9 µM in assay [2].

On to `O=C1c2c(ccc(O)c2O)CN1Cc1ccc(F)c(F)c1`, for which the IC50 turned out to be 72 µM in assay [1], 0.9 µM in assay [2] and 9.01 µM in the assay with HOS. The concentration giving a half-maximal response (EC50) in assay [3] was 1.08 µM.

In the case of `O=C1c2ccc(O)c(O)c2C(=O)N1Cc1cccc(Cl)c1F`, the IC50 in assay [1] was determined as 25 µM; in assay [2], 2 µM; with HOS it was 11.5 µM. In addition, the EC50 in assay [3] worked out at 2.74 µM.

As to `O=C1c2ccc(O)c(O)c2C(=O)N1Cc1ccccc1`, the IC50 in assay [1] worked out at 72 µM; in assay [2] it was 0.4 µM. Further, the concentration for a half-maximal effect (EC50) in assay [3] was determined as 11.2 µM.

For `O=C1c2ccc(O)c(O)c2C(=O)N1Cc1cc(F)cc(F)c1`, the IC50 in assay [1] was determined as 48 µM; in assay [2], 0.4 µM.

With `O=C1c2c(ccc(O)c2O)CN1Cc1ccc(Cl)c(Cl)c1`, the figures for the IC50 (in assay [1]; in assay [2]; in the assay on HOS) were 89 µM, 0.1 µM and 5.68 µM, respectively. Moreover, the EC50 in assay [3] was 3.3 µM.

Compound `O=C1c2c(ccc(O)c2O)CN1Cc1ccc(F)c(Cl)c1` showed a half-inhibitory concentration (IC50) in the assay with HOS of 6.87 µM. Also, the EC50 in assay [3] stood at 0.48 µM.

As for `O=C1c2c(ccc(O)c2O)CN1Cc1ccc(F)c(F)c1F`, the IC50 is 153 µM in assay [1] and 2.7 µM in assay [2].

Turning to `O=C1c2c(ccc(O)c2O)CN1Cc1cc(Cl)ccc1F`, the half-maximal inhibitory concentration (IC50) amounted to 18 µM in assay [1] and 1.2 µM in assay [2].

Regarding `O=C1c2c(ccc(O)c2O)CN1Cc1c(F)c(F)c(F)c(F)c1F`, the IC50 in assay [1] was determined as 230 µM; in assay [2] it was 8 µM.

Take `O=C1c2ccc(O)c(O)c2C(=O)N1Cc1ccc(F)cc1Cl`: the concentration for half-maximal inhibition (IC50) amounted to 90 µM in assay [1] and 1.3 µM in assay [2].

`O=C1c2ccc(O)c(O)c2C(=O)N1Cc1ccc(Cl)c(F)c1`: the half-maximal inhibitory concentration (IC50) in assay [1] is 58 µM; in assay [2] it was 0.9 µM.

With `O=C1c2ccc(O)c(O)c2C(=O)N1Cc1cccc(Cl)c1`, the figures for the IC50 (in assay [1]; in assay [2]; in the assay with HOS) were 14 µM, 0.4 µM and 13.3 µM, respectively. In addition, in assay [3], the half-maximal effective concentration (EC50) amounted to 4.2 µM.

For `O=C1c2ccc(O)c(O)c2C(=O)N1Cc1ccc(F)c(Br)c1`, the IC50 in assay [1] stood at 11 µM; in assay [2], 0.9 µM.

For the compound `O=C1c2ccc(O)c(O)c2C(=O)N1Cc1c(F)cccc1Cl`, the IC50 in assay [1] came out at 54 µM; in assay [2] it was 3.5 µM.

Turning to `O=C1c2ccc(O)c(O)c2C(=O)N1Cc1ccccc1F`, the results for the IC50 in assay [1] and in assay [2] were 68 µM and 2 µM, respectively.

On to `O=C1c2c(ccc(O)c2O)CN1Cc1c(F)ccc(F)c1F`, for which the IC50 in assay [1] was over 333 µM; in assay [2], 25 µM.

For the compound `O=C1c2c(ccc(O)c2O)CN1Cc1cccc(F)c1F`, the IC50 in assay [1] came to 72 µM; in assay [2] it was 0.7 µM.

Regarding `O=C1c2c(ccc(O)c2O)CN1Cc1cc(F)c(F)c(F)c1`, the concentration for half-maximal inhibition (IC50) in assay [1] was 99 µM; in assay [2], 4 µM.

Consider `O=C1c2ccc(O)c(O)c2C(=O)N1Cc1c(F)c(F)c(F)c(F)c1F`, for which the IC50 in assay [1] came to 41 µM; in assay [2], 1.3 µM.

With `O=C1c2c(ccc(O)c2O)CN1Cc1c(F)cccc1Cl`, the IC50 in assay [1] was over 333 µM; in assay [2], 18 µM.

`O=C1c2ccc(O)c(O)c2C(=O)N1Cc1cccc(I)c1`: the half-inhibitory concentration (IC50) stood at 85 µM in assay [1], 1 µM in assay [2] and 12 µM in the assay with HOS. Also, in assay [3], the half-maximal effective concentration (EC50) came out at 7.77 µM.

As to `O=C1c2c(ccc(O)c2O)CN1Cc1cc(F)c(F)cc1F`, the 50% inhibitory concentration (IC50) is over 333 µM in assay [1] and 3.7 µM in assay [2].

As for `O=C1c2ccc(O)c(O)c2C(=O)N1Cc1cc(Cl)ccc1F`, the figures for the IC50 in assay [1] and in assay [2] were 9 µM and 0.31 µM, respectively.
